{"source": "patent EP0170258A2", "about": "“11-Substituted-16-phenoxy and 16-substituted phenoxy-prostatrienoic acid derivatives” (priority 1984, dated 1986)", "key": {"[1]": {"system": "Normal White Albino New Zealand Rabbits", "experiment": "Reduction of intraocular pressure (IOP), pneuma-tonometer", "conditions": "rabbit, in vivo"}, "[2]": {"system": "Normal White Albino New Zealand Rabbits", "experiment": "Reduction of intraocular pressure (IOP), pneuma-tonometer", "assay_type": "in vivo", "protocol": "Two groups of normal albino white New Zealand rabbits were used for this study. Control group: 4 animals Experimental group: 8 animals At time 0, intraocular pressure of both eyes of each animal in control and experimental groups was determined. All animals received the treatment either with saline (control group) or the tested compound (experimental group) immediately after 0 hour intraocular pressure reading. Control group received 50 µl of vehicle in both eyes . Experimental animals received 50 µl of vehicle in the left eyes and 50 µl of the test solution in the right eyes. Intraocular pressure was measured at 30 minutes, 1, 2, and 4 hours. The effects of tested drug on intraocular pressure of the rabbit was determined using a Digilab Model 30D pneuma-tonometer. Initial IOP readings were obtained in all animals after the administration of 50 ul of 0.5% Opthaine (proparacaine hydrochloride). A group of 4 rabbits served as controls and were treated with 50 µl of saline in both eyes. Eight additional rabbits received 50 ul of test drug in the right eye, and 50 µl of drug vehicle was administered in the contralateral left eye. IOP readings were made 30 minutes, 1 hours, 2 hours, and 4 hours after drug administration. […] This procedure permitted the comparison of drug treated eye with the contralateral vehicle treated eye, and also with saline treated eye. For purposes of statistical analysis comparisons were made between the drug treated IOP values and vehicle treated-contralateral eyes and also the saline treated IOP values."}, "[3]": {"system": "Monkeys", "experiment": "Toxicity by topical ocular application in monkeys", "assay_type": "in vivo", "conditions": "same concentrations and dosages, once a day for one week", "protocol": "Monkeys were treated similarly with the same concentrations and dosages of methyl 9-oxo-lla- methyl-15a-hydroxy-16-phenoxy-17,18,19,20-tetranorprosta-4,5,13(E)-trienoate once a day for one week."}, "[4]": {"system": "rabbits", "experiment": "Toxicity by topical ocular application in rabbits", "assay_type": "in vivo", "conditions": "up to 0.2 mg/ml, 0.1 ml/eye, from 12 times in 6 hours to up to 6 times/day for a week", "protocol": "Studies were conducted by topical ocular application in rabbits with concentrations up to 0.2 mg/ml of methyl 9-oxo-lla-methyl-15a-hydroxy-16-phenoxy-17,18,19,20-tetranorprosta-4,5,13(E)-trienoate. The dose volume was 0.1 ml/eye. Duration of administration varied from 12 times in 6 hours to up to 6 times/day for a week."}}}
{"smiles": "CCCCC[C@H](O)/C=C/[C@H]1[C@H](O)CC(=O)[C@@H]1CCCCCCC(=O)O", "note": "[PGE1]", "values": [{"measurement": "eye irritation", "setting": "[1]", "result": "severe eye irritation"}, {"measurement": "Intraocular pressure", "setting": "[2]; PGE1 0.01%, 0 hr (reading before treatment)", "result": "20.67 ± 1.09", "unit": "mmHg"}, {"measurement": "Intraocular pressure", "setting": "[2]; PGE1 0.01%, 1/2 hr", "result": "38.17 ± 1.28", "unit": "mmHg"}, {"measurement": "Intraocular pressure", "setting": "[2]; PGE1 0.01%, 1 hr", "result": "31.17 ± .91 mmHg"}, {"measurement": "Intraocular pressure", "setting": "[2]; PGE1 0.01%, 2 hr", "result": "15.33 ± .56 mmHg"}, {"measurement": "Intraocular pressure", "setting": "[2]; PGE1 0.01%, 4 hr", "result": "16.33 ± 1.17", "unit": "mmHg"}, {"measurement": "Intraocular pressure", "setting": "[2]; PGE1 0.01%, 6 hr", "result": "19.00 ± 1.03", "unit": "mmHg"}, {"measurement": "transient increase in intraocular pressure at the time of administration", "setting": "[2]; rabbit, in vivo", "result": "transitory rise in intraocular pressure"}]}
{"smiles": "COC(=O)CCC=C=CC[C@H]1C(=O)C[C@@H](C)[C@@H]1/C=C/[C@@H](O)COc1ccccc1", "note": "[Compound 1, methyl 9-oxo-11α-methyl-15α-hydroxy-16-phenoxy-17,18,19,20-tetranorprosta-4,5,13(E)-trienoate]", "values": [{"measurement": "ocular toxicity", "setting": "[3]", "result": "No ocular toxicity occurred"}, {"measurement": "ocular toxicity", "setting": "[4]", "result": "No ocular toxicity occurred"}, {"measurement": "intraocular pressure (effect in words)", "setting": "[2]; 0.01% solution, right (treated) eyes of the experimental group", "result": "decreased significantly"}, {"measurement": "Intraocular pressure", "setting": "[2]; Compound 1 0.02%, 0 hr (reading before treatment)", "result": "21.63 ± .71 mmHg"}, {"measurement": "Intraocular pressure", "setting": "[2]; Compound 1 0.02%, 1/2 hr", "result": "18.13 ± .44 mmHg"}, {"measurement": "Intraocular pressure", "setting": "[2]; Compound 1 0.02%, 1 hr", "result": "17.25 ± .59 mmHg"}, {"measurement": "Intraocular pressure", "setting": "[2]; Compound 1 0.02%, 2 hr", "result": "16.63 ± .78 mmHg"}, {"measurement": "Intraocular pressure", "setting": "[2]; Compound 1 0.02%, 4 hr", "result": "18.75 ± .68 mmHg"}, {"measurement": "Intraocular pressure", "setting": "[2]; Compound 1 0.2%, 0 hr (reading before treatment)", "result": "23.75 ± .53 mmHg"}, {"measurement": "Intraocular pressure", "setting": "[2]; Compound 1 0.2%, 1/2 hr", "result": "19.25 ± .49 mmHg"}, {"measurement": "Intraocular pressure", "setting": "[2]; Compound 1 0.2%, 1 hr", "result": "18.88 ± .64 mmHg"}, {"measurement": "Intraocular pressure", "setting": "[2]; Compound 1 0.2%, 2 hr", "result": "18.75 ± .45 mmHg"}, {"measurement": "Intraocular pressure", "setting": "[2]; Compound 1 0.2%, 4 hr", "result": "19.88 ± .35 mmHg"}]}
{"smiles": "CCCCC[C@H](O)/C=C/[C@H]1[C@H](O)CC(=O)[C@@H]1C/C=C\\CCCC(=O)O", "note": "[PGE2]", "values": [{"measurement": "Intraocular pressure", "setting": "[2]; PGE2 0.025%, 0 hr (reading before treatment)", "result": "21.00 ± .85 mmHg"}, {"measurement": "Intraocular pressure", "setting": "[2]; PGE2 0.025%, 1/2 hr", "result": "47.63 ± 1.28", "unit": "mmHg"}, {"measurement": "Intraocular pressure", "setting": "[2]; PGE2 0.025%, 2.5 hr", "result": "18.38 ± .82 mmHg"}, {"measurement": "Intraocular pressure", "setting": "[2]; PGE2 0.025%, 4 hr", "result": "16.00 ± .73 mmHg"}, {"measurement": "Intraocular pressure", "setting": "[2]; PGE2 0.025%, 5 hr", "result": "16.63 ± .38 mmHg"}, {"measurement": "eye irritation", "setting": "[2]; observed on administration, for PGE1 and PGE2 even at low doses", "result": "severe eye irritation"}, {"measurement": "transient increase in intraocular pressure at the time of administration", "setting": "[2]; when first administered", "result": "transitory rise in intraocular pressure"}]}
